Test results published in patent publication US20140235705A1, “FORMULATIONS OF THIOPHENE COMPOUNDS” (Vertex Pharmaceuticals Incorporated, priority 2011, published 2014).
Where a name gives a salt, the structure may show the parent alone.

Experiment: Solubility (Cs) of Compound (1) solid forms in FESSIF
Type: physicochemical
Conditions: FESSIF (fed state simulated intestinal fluid)
Description: Simulated human intestinal media suitable for the invention can be found in the art, for example, those described in Jantratid, et al., “Dissolution Media Simulating Conditions in the Proximal Human Gastrointestinal Tract: An Update,” Pharmaceutical Research, 25(7), 2008. In one embodiment, a human fed state simulated intestinal fluid ([…]) is employed in the invention. A typical […] includes sodium hydroxide, citric acid, sodium chloride, sodium taurocholate, and lecithin (L-Alpha-Phosphatidyl Choline). A specific example is described in Example 9 below. […] [table]

| SMILES | solubility of Compound (1) in FESSIF [mg/mL] |
| --- | --- |
| CC(C)(C)C#Cc1cc(N(C(=O)[C@H]2CC[C@H](C)CC2)[C@H]2CC[C@H](O)CC2)c(C(=O)O)s1 [Form A of Compound (1), 5-(3,3-Dimethyl-but-1-ynyl)-3-[(trans-4-hydroxy-cyclohexyl)-(trans-4-methyl-cyclohexanecarbonyl)-amino]-thiophene-2-carboxylic acid] | 0.9 |
| CC(C)(C)C#Cc1cc(N(C(=O)[C@H]2CC[C@H](C)CC2)[C@H]2CC[C@H](O)CC2)c(C(=O)O)s1 [Form M of Compound (1), 5-(3,3-Dimethyl-but-1-ynyl)-3-[(trans-4-hydroxy-cyclohexyl)-(trans-4-methyl-cyclohexanecarbonyl)-amino]-thiophene-2-carboxylic acid] | 0.825 |
| CC(C)(C)C#Cc1cc(N(C(=O)[C@H]2CC[C@H](C)CC2)[C@H]2CC[C@H](O)CC2)c(C(=O)O)s1 [tromethamine salt of Compound (1), 5-(3,3-Dimethyl-but-1-ynyl)-3-[(trans-4-hydroxy-cyclohexyl)-(trans-4-methyl-cyclohexanecarbonyl)-amino]-thiophene-2-carboxylic acid] | 2.6 |
